Laboratory results published in patent US20060069132A1, “Azolecarboxamide herbicides” (priority 2004, published 2006).

Legend:
corn [1] = assay: Test B pre-/postemergence herbicide test; type: in vivo, Zea mays
Outline: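 Herbicidal effect was judged by eye on a 0–100 scale after plants stood 13 to 15 days in the greenhouse following pre- or postemergence treatment with surfactant-containing formulations.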

wild oat = assay: Test B postemergence herbicide test; type: in vivo, Avena fatua; conditions: scale 0 (no effect) to 100 (complete control); for Plant response rating, Oat, Wild: Postemergence, 500 g ai/ha, visual rating after 13 to 15 days; for Oat, Wild plant response rating: postemergence, 125 g ai/ha, visual rating
Outline: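 Read-out: visual comparison with controls, scored 0 to 100, where 100 means complete control and 0 no effect. Formulated chemicals were applied postemergence to plants 2–18 cm tall (1- to 4-leaf), or to flooded-paddy plants at the 2-leaf stage, then held 13 to 15 days under glass.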

Surinam grass = assay: Test C pre-/postemergence herbicide test; type: in vivo, Urochloa decumbens
Outline: (§1)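 Visual injury scores run from 0 (no effect) to 100 (complete control), assessed relative to untreated controls 12 to 14 days after treatment in the greenhouse. Chemicals were formulated in a non-phytotoxic solvent mixture with surfactant and applied to soil after planting or to emerged plants at the 1- to 4-leaf stage.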

corn [2] = assay: Test C pre-/postemergence herbicide test; type: in vivo, Zea mays
Outline: as §1

large crabgrass = assay: Test C pre-/postemergence herbicide test; type: in vivo, Digitaria sanguinalis
Outline: as §1

johnsongrass = assay: Test C pre-/postemergence herbicide test; type: in vivo, Sorghum halepense
Outline: as §1

yellow nutsedge = assay: Test C pre-/postemergence herbicide test; type: in vivo, Cyperus esculentus
Outline: as §1

pigweed = assay: Test C pre-/postemergence herbicide test; type: in vivo, Amaranthus retroflexus
Outline: as §1

soybean = assay: Test C pre-/postemergence herbicide test; type: in vivo, Glycine max
Outline: as §1

velvetleaf = assay: Test C pre-/postemergence herbicide test; type: in vivo, Abutilon theophrasti
Outline: as §1

[3] = Postemergence, 500 g ai/ha, visual rating after 13 to 15 days, scale 0 (no effect) to 100 (complete control)
[4] = Preemergence, 500 g ai/ha, scale 0 to 100
[5] = postemergence, 125 g ai/ha, visual rating, scale 0 (no effect) to 100 (complete control)
[6] = preemergence, 125 g ai/ha, 0 to 100 scale, 0 is no effect, 100 is complete control
[7] = 31 g ai/ha, preemergence, scale 0 to 100
[8] = 125 g ai/ha, scale 0 (no effect) to 100 (complete control), visual, 12 to 14 days, preemergence
[9] = 250 g ai/ha, scale 0 to 100 (0 no effect, 100 complete control), visual, 12 to 14 days, preemergence
[10] = Postemergence, 250 g ai/ha, scale 0 to 100, 0 no effect, 100 complete control
[11] = postemergence, 125 g ai/ha, scale 0 to 100
[12] = postemergence, 62 g ai/ha, scale 0 to 100

CCn1nc(C(C)(C)C)cc1C(=O)Nc1ccc(F)c(C(=O)NCCF)c1 [Compound 60]
Plant response rating, Corn (corn [1]; [3]): 20 | Corn plant response rating (corn [1]; [4]): 0 | Corn plant response rating (corn [1]; [5]): 10 | Plant response rating, Corn (corn [1]; [6]): 0 | Plant response rating, Oat, Wild (wild oat): 20 | Oat, Wild plant response rating (wild oat): 20 | Plant response rating, Surinam Grass (Surinam grass; [7]): 0 | Plant response rating (0 = no effect, 100 = complete control), Surinam Grass (Surinam grass; 62 g ai/ha, preemergence): 0 | Plant response rating, Surinam Grass (Surinam grass; [8]): 0 | Plant response rating, Surinam Grass (Surinam grass; [9]): 50 | Plant response rating, Surinam Grass (Surinam grass; [10]): 5 | Plant response rating, Surinam Grass (Surinam grass; [11]): 5 | Plant response rating, Surinam Grass (Surinam grass; [12]): 5 | Plant response rating, Corn (corn [2]; [7]): 0 | Plant response rating (0 = no effect, 100 = complete control), Corn (corn [2]; 62 g ai/ha, preemergence): 0 | Plant response rating, Corn (corn [2]; [8]): 0 | Plant response rating, Corn (corn [2]; [9]): 0 | Plant response rating, Corn (corn [2]; [10]): 0 | Plant response rating, Corn (corn [2]; [11]): 0 | Plant response rating, Corn (corn [2]; [12]): 0 | Plant response rating, Crabgrass, Large (large crabgrass; [7]): 80 | Plant response rating (0 = no effect, 100 = complete control), Crabgrass, Large (large crabgrass; 62 g ai/ha, preemergence): 90 | Plant response rating, Crabgrass, Large (large crabgrass; [8]): 90 | Plant response rating, Crabgrass, Large (large crabgrass; [9]): 95 | Plant response rating, Crabgrass, Large (large crabgrass; [10]): 5 | Plant response rating, Crabgrass, Large (large crabgrass; [11]): 0 | Plant response rating, Crabgrass, Large (large crabgrass; [12]): 0 | Plant response rating, Johnsongrass (johnsongrass; [7]): 5 | Plant response rating (0 = no effect, 100 = complete control), Johnsongrass (johnsongrass; 62 g ai/ha, preemergence): 10 | Plant response rating, Johnsongrass (johnsongrass; [8]): 50 | Plant response rating, Johnsongrass (johnsongrass; [9]): 60 | Plant response rating, Johnsongrass (johnsongrass; [10]): 0 | Plant response rating, Johnsongrass (johnsongrass; [11]): 0 | Plant response rating, Johnsongrass (johnsongrass; [12]): 0 | Plant response rating, Nutsedge, Yellow (yellow nutsedge; [7]): 0 | Plant response rating (0 = no effect, 100 = complete control), Nutsedge, Yellow (yellow nutsedge; 62 g ai/ha, preemergence): 0 | Plant response rating, Nutsedge, Yellow (yellow nutsedge; [8]): 0 | Plant response rating, Nutsedge, Yellow (yellow nutsedge; [9]): 5 | Plant response rating, Nutsedge, Yellow (yellow nutsedge; [10]): 0 | Plant response rating, Nutsedge, Yellow (yellow nutsedge; [11]): 0 | Plant response rating, Nutsedge, Yellow (yellow nutsedge; [12]): 0 | Plant response rating, Pigweed (pigweed; [7]): 100 | Plant response rating (0 = no effect, 100 = complete control), Pigweed (pigweed; 62 g ai/ha, preemergence): 100 | Plant response rating, Pigweed (pigweed; [8]): 100 | Plant response rating, Pigweed (pigweed; [9]): 100 | Plant response rating, Pigweed (pigweed; [10]): 60 | Plant response rating, Pigweed (pigweed; [11]): 40 | Plant response rating, Pigweed (pigweed; [12]): 40 | Plant response rating, Soybean (soybean; [7]): 0 | Plant response rating (0 = no effect, 100 = complete control), Soybean (soybean; 62 g ai/ha, preemergence): 0 | Plant response rating, Soybean (soybean; [8]): 0 | Plant response rating, Soybean (soybean; [9]): 0 | Plant response rating, Soybean (soybean; [10]): 50 | Plant response rating, Soybean (soybean; [11]): 40 | Plant response rating, Soybean (soybean; [12]): 20 | Plant response rating, Velvetleaf (velvetleaf; [7]): 5 | Plant response rating, Velvetleaf (velvetleaf; [8]): 70 | Plant response rating, Velvetleaf (velvetleaf; [9]): 85 | Plant response rating, Velvetleaf (velvetleaf; [10]): 30 | Plant response rating, Velvetleaf (velvetleaf; [11]): 20 | Plant response rating, Velvetleaf (velvetleaf; [12]): 20

CCn1nc(C(C)(C)C)cc1C(=O)Nc1cccc(C(=O)OC)c1 [Compound 81]
Plant response rating, Corn (corn [1]; [3]): 30 | Corn plant response rating (corn [1]; [4]): 0 | Corn plant response rating (corn [1]; [5]): 10 | Plant response rating, Corn (corn [1]; [6]): 0 | Plant response rating, Oat, Wild (wild oat): 30 | Oat, Wild plant response rating (wild oat): 20 | Plant response rating, Surinam Grass (Surinam grass; [10]): 80 | Plant response rating, Surinam Grass (Surinam grass; [11]): 50 | Plant response rating, Surinam Grass (Surinam grass; [12]): 50 | Plant response rating, Corn (corn [2]; [10]): 40 | Plant response rating, Corn (corn [2]; [11]): 40 | Plant response rating, Corn (corn [2]; [12]): 40 | Plant response rating, Crabgrass, Large (large crabgrass; [10]): 30 | Plant response rating, Crabgrass, Large (large crabgrass; [11]): 10 | Plant response rating, Crabgrass, Large (large crabgrass; [12]): 5 | Plant response rating, Johnsongrass (johnsongrass; [10]): 5 | Plant response rating, Johnsongrass (johnsongrass; [11]): 0 | Plant response rating, Johnsongrass (johnsongrass; [12]): 0 | Plant response rating, Nutsedge, Yellow (yellow nutsedge; [10]): 0 | Plant response rating, Nutsedge, Yellow (yellow nutsedge; [11]): 0 | Plant response rating, Nutsedge, Yellow (yellow nutsedge; [12]): 0 | Plant response rating, Pigweed (pigweed; [10]): 40 | Plant response rating, Pigweed (pigweed; [11]): 10 | Plant response rating, Pigweed (pigweed; [12]): 5 | Plant response rating, Soybean (soybean; [10]): 30 | Plant response rating, Soybean (soybean; [11]): 30 | Plant response rating, Soybean (soybean; [12]): 10 | Plant response rating, Velvetleaf (velvetleaf; [10]): 60 | Plant response rating, Velvetleaf (velvetleaf; [11]): 55 | Plant response rating, Velvetleaf (velvetleaf; [12]): 55
